Source: the NIST ThermoML archive (doi:10.1021/je8002964)
± gives the expanded uncertainty stated by the source.

Details: 298.15 K; 101.33 kPa; Liquid

| Structure (SMILES) | mass density [kg/m3] |
| --- | --- |
| C1CCCCC1 [cyclohexane] | 774 ± 0.3 |
| CCCCCCC [heptane] | 680 ± 0.7 |

Further lines, results first:

| mass density [kg/m3] | Structure (SMILES) |
| --- | --- |
| 1382.4 ± 1.2 | OCC(F)(F)F [2,2,2-trifluoroethanol] |
| 787 ± 0.4 | CO [methanol] |
| 781.4 ± 0.5 | CC(C)O [propan-2-ol] |
